US9657047B2, “Crystallization of epirubicin hydrochloride” (MEDAC GESELLSCHAFT FÜR KLINISCHE SPEZIALPRÄPARATE MBH, priority 2011, dated 2017)

Experiment: test of thermal stability (storage at 40° C.)
Format: physicochemical
Settings: two weeks and three weeks; for decomposition on storage (thermal stability): crystals stored at 40° C. for one week
Procedure: The produced crystalline epirubicin hydrochloride was subjected to a test of thermal stability. For this purpose, the produced crystals were stored at a temperature of 40° C. for a time period of one week, two weeks, and three weeks. […] Instead, the crystals remained in unchanged form.
The epirubicin hydrochloride produced was subjected to a test of thermal stability. For this purpose, the epirubicin hydrochloride was stored at a temperature of 40° C. for a time period of one week, two weeks, and three weeks. Within this time frame, a thermal decomposition of epirubicin hydrochloride amplified with increasing storage period by two percent respectively was observed.

| Structure (SMILES) | thermal decomposition amplified with increasing storage period (stored at 40° C. for one week, increase per storage period) | decomposition on storage (thermal stability) |
| --- | --- | --- |
| COc1cccc2c1C(=O)c1c(O)c3c(c(O)c1C2=O)C[C@@](O)(C(=O)CO)C[C@@H]3O[C@H]1C[C@H](N)[C@@H](O)[C@H](C)O1.Cl [Comparison Example 1, epirubicin hydrochloride] | two | – |
| COc1cccc2c1C(=O)c1c(O)c3c(c(O)c1C2=O)C[C@@](O)(C(=O)CO)C[C@@H]3O[C@H]1C[C@H](N)[C@@H](O)[C@H](C)O1.Cl [Example 1, epirubicin hydrochloride] | – | no decomposition |
| COc1cccc2c1C(=O)c1c(O)c3c(c(O)c1C2=O)C[C@@](O)(C(=O)CO)C[C@@H]3O[C@H]1C[C@H](N)[C@@H](O)[C@H](C)O1.Cl [Example 2, epirubicin hydrochloride] | – | no decomposition |
